Patent US11702422B2, “Imidazopyridazines as modulators of IL-17” (Janssen Pharmaceutica NV, priority 2020, dated 2023)

Assays:
[1] = biological target: IL-17A(FLAG-Tagged): IL-17RA(His-Tagged) (Homo sapiens, UniProt Q16552, K93Q); experiment: IL-17A(FLAG-Tagged): IL-17RA(His-Tagged) Binding Disruption Eu-HTRF Assay; settings: IL-17A/IL-17RA binding disruption, simple average if tested more than once
Outline: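 IC50 comes from a one-site competition fit of the HTRF 665/620 nm ratio. Compound dilutions (2-fold, 22 points) were held 1 h rt with FLAG-tagged IL-17A dimer, then His-tagged IL-17RA plus Eu-cryptate anti-FLAG and D2 anti-His antibodies were added for 2 h rt.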

[2] = tested on: IL-17A-induced G-CSF production in human normal keratinocyte (NHK); experiment: NHK Assay: IL-17A-induced G-CSF production in human normal keratinocytes; assay type: cell-based; settings: adult normal human keratinocytes, IL-17A 5 ng/mL, 24 h, simple average if tested more than once
Outline: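 Adult NHK, 3000-4000 cells/well; rhIL-17A + titrated cpd preincubated 1 h rt, then onto cells. Final: IL-17A 5 ng/mL, DMSO 0.2%, 5% FBS. 24 h, 37° C. G-CSF in supernatant by HTRF vs standard curve; IC50. Viability by CellTiter-Glo vs DMSO.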

Chain of UniProt Q16552 (Q16552 with tags, fused parts or gaps K93Q): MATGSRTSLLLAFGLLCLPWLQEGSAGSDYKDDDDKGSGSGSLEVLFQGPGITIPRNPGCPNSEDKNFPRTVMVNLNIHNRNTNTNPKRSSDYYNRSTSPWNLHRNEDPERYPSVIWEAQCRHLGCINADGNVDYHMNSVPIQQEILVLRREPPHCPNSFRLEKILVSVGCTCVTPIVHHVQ

Cc1nonc1C(=O)N[C@H](c1cn2ncc([C@H](NC(=O)C(F)C3CCC3)C3CC3)cc2n1)C1CCC(F)(F)CC1 (single isomer, unassigned) [Example 349, N—((S)-(7-((R)-((S*)-2-Cyclobutyl-2-fluoroacetamido)(cyclopropyl)methyl)imidazo[1,2-b]pyridazin-2-yl)(4,4-difluorocyclohexyl)methyl)-4-methyl-1,2,5-oxadiazole-3-carboxamide]
IC50 [1]: 420 nM | IC50 [2]: 1700 nM

Cc1nonc1C(=O)N[C@H](c1cn2ncc([C@H](NC(=O)CC(C)CC(F)(F)F)C3CC3)cc2n1)C1CCC(F)(F)CC1 (single isomer, unassigned) [Example 350, N—((S)-(7-((R)-Cyclopropyl((R*)-5,5,5-trifluoro-3-methylpentanamido)methyl)imidazo[1,2-b]pyridazin-2-yl)(4,4-difluorocyclohexyl)methyl)-4-methyl-1,2,5-oxadiazole-3-carboxamide]
IC50 [1]: 270 nM | IC50 ([2]; Homo sapiens, Keratinocyte): 660 nM

O=C(CCC(F)(F)F)N[C@@H](c1cnn2cc([C@@H](NC(=O)[C@@H]3C[C@H]3C(F)F)C3CCC(F)(F)CC3)nc2c1)C1CC1 (single isomer, unassigned) [Example 360]
IC50 [1]: 2700 nM | IC50 ([2]; Homo sapiens, Keratinocyte): > 20000 nM

O=C(CCC(F)(F)F)N[C@@H](c1cnn2cc([C@@H](NC(=O)[C@H]3C[C@@H]3C(F)F)C3CCC(F)(F)CC3)nc2c1)C1CC1 (single isomer, unassigned) [Example 361]
IC50 [1]: 210 nM | IC50 ([2]; Homo sapiens, Keratinocyte): 1700 nM

CC(O)c1nonc1C(=O)N[C@H](c1cn2ncc([C@H](NC(=O)CC3CC(F)(F)C3)C3CC3)cc2n1)C1CCC(F)(F)CC1 (single isomer, unassigned) [Example 395, N—((S)-(7-((R)-Cyclopropyl(2-(3,3-difluorocyclobutyl)acetamido)methyl)imidazo[1,2-b]pyridazin-2-yl)(4,4-difluorocyclohexyl)methyl)-4-((R*)-1-hydroxyethyl)-1,2,5-oxadiazole-3-carboxamide]
IC50 [1]: 48 nM | IC50 ([2]; Homo sapiens, Keratinocyte): 170 nM

CC(O)c1nonc1C(=O)N[C@H](c1cn2ncc([C@H](NC(=O)CC3CC(F)(F)C3)C3CC3)cc2n1)C1CCC(F)(F)CC1 (single isomer, unassigned) [Example 396, N—((S)-(7-((R)-Cyclopropyl(2-(3,3-difluorocyclobutyl)acetamido)methyl)imidazo[1,2-b]pyridazin-2-yl)(4,4-difluorocyclohexyl)methyl)-4-((S*)-1-hydroxyethyl)-1,2,5-oxadiazole-3-carboxamide]
IC50 [1]: 50 nM | IC50 [2]: 190 nM

Cc1nonc1C(=O)N[C@H](c1cn2ncc(C(CC#N)NC(=O)CC3CC(F)(F)C3)cc2n1)C1CCC(F)(F)CC1 (single isomer, unassigned) [Example 397, N—((S)-(7-((S*)-2-Cyano-1-(2-(3,3-difluorocyclobutyl)acetamido)ethyl)imidazo[1,2-b]pyridazin-2-yl)(4,4-difluorocyclohexyl)methyl)-4-methyl-1,2,5-oxadiazole-3-carboxamide]
IC50 [1]: 120 nM | IC50 [2]: 600 nM

N#CCC(NC(=O)CC1CC(F)(F)C1)c1cnn2cc([C@@H](NC(=O)c3nonc3C3CC3)C3CCC(F)(F)CC3)nc2c1 (single isomer, unassigned) [Example 398, N—((S)-(7-((S*)-2-Cyano-1-(2-(3,3-difluorocyclobutyl)acetamido)ethyl)imidazo[1,2-b]pyridazin-2-yl)(4,4-difluorocyclohexyl)methyl)-4-cyclopropyl-1,2,5-oxadiazole-3-carboxamide]
IC50 [1]: 42 nM | IC50 ([2]; Homo sapiens, Keratinocyte): 71 nM

CC(C)n1nccc1C(=O)N[C@H](c1cn2ncc(C(CC#N)NC(=O)CC3CC(F)(F)C3)cc2n1)C1CCC(F)(F)CC1 (single isomer, unassigned) [Example 399, N—((S)-(7-((S*)-2-Cyano-1-(2-(3,3-difluorocyclobutyl)acetamido)ethyl)imidazo[1,2-b]pyridazin-2-yl)(4,4-difluorocyclohexyl)methyl)-1-isopropyl-1H-pyrazole-5-carboxamide]
IC50 [1]: 310 nM | IC50 [2]: 94 nM
